Where a name gives a salt, the structure may show the parent alone. Values belong to the molecule of their own block, whether it stands above or below them.
Biological target: Steroidogenic factor 1 (Homo sapiens, UniProt Q13285)
Test: SF-1 activators, concentration-response, dose response, cell-based, CHO-K1, Gal4-SF-1 LBD, luciferase luminescence (AID 692)
[1] = inactive by the depositor's call

Steroidogenic factor 1, sequence (Q13285 whole entry, the tested form may be a part): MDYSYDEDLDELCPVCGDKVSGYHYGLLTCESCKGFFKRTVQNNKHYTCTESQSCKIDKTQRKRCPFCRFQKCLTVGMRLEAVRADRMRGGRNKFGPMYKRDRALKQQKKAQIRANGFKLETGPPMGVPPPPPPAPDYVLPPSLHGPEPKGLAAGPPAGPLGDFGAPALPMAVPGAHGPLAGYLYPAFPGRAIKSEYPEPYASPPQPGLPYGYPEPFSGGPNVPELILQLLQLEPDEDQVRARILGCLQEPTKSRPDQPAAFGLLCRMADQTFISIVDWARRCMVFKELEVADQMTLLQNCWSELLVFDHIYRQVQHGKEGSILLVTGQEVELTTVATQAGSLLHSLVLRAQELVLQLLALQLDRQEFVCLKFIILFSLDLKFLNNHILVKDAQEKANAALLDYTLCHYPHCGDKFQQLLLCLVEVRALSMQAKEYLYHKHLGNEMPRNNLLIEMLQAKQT

SMILES: O=c1c2ccccc2nnn1CSc1nnc(COc2ccc(Cl)cc2)n1Cc1ccco1 [3-[[5-[(4-chloranylphenoxy)methyl]-4-(furan-2-ylmethyl)-1,2,4-triazol-3-yl]sulfanylmethyl]-1,2,3-benzotriazin-4-one]
EC50: > 3670 nM

SMILES: COc1cccc(C(=O)Nc2cccc(-c3nnc(-c4ccccc4)o3)c2)c1 [3-methoxy-N-[3-(5-phenyl-1,3,4-oxadiazol-2-yl)phenyl]benzamide]
EC50: > 1220 nM

SMILES: COc1ccc(-c2nc3c(Br)c(N)c(Br)cc3o2)cc1 [4,6-bis(bromanyl)-2-(4-methoxyphenyl)-1,3-benzoxazol-5-amine]
EC50: 825 nM

SMILES: c1ccc2nc3c(nc2c1)c1ccccc1n3CCN1CCOCC1 [4-(2-indolo[3,2-b]quinoxalin-6-ylethyl)morpholine]
EC50: > 11000 nM

SMILES: COc1ccc(CNc2ccc(C(=O)O)cc2)cc1 [4-(p-anisylamino)benzoic acid]
EC50: 1840 nM

SMILES: CCCOC(=O)c1ccc(NC(=O)C2CCCO2)cc1 (stereo not given) [4-(tetrahydrofuran-2-carbonylamino)benzoic acid propyl ester]
EC50: 2490 nM

SMILES: COc1cccc2c(O)c(C(=O)NCc3cccs3)cnc12 [4-Hydroxy-8-methoxy-quinoline-3-carboxylic acid (thiophen-2-ylmethyl)-amide]
EC50: 6650 nM

SMILES: Cc1cccnc1Nc1nc(-c2ccc(O)cc2O)cs1 [4-[2-(3-Methyl-pyridin-2-ylamino)-thiazol-4-yl]-benzene-1,3-diol]
EC50: 2270 nM

SMILES: CC(C)(CC(=O)O)Cc1nc(-c2ccc(Cl)cc2)no1 [4-[3-(4-chlorophenyl)-1,2,4-oxadiazol-5-yl]-3,3-dimethyl-butanoic acid]
EC50: > 11000 nM

SMILES: CCOC(=O)N1CCN(S(=O)(=O)c2ccc(C(=O)Nc3sc4c(c3C#N)CCC4)cc2)CC1 [4-[4-[(3-cyano-5,6-dihydro-4H-cyclopenta[b]thiophen-2-yl)carbamoyl]phenyl]sulfonylpiperazine-1-carboxylic acid ethyl ester]
EC50: > 1220 nM

SMILES: COC(=O)c1ccc(C(=O)C(C#N)c2nc3ccccc3s2)cc1 (stereo not given) [4-[(2Z)-2-(3H-1,3-benzothiazol-2-ylidene)-2-cyano-1-oxoethyl]benzoic acid methyl ester]
EC50: 2710 nM

SMILES: Cc1ccc(C(=O)Nc2ncc(Cc3ccccc3)s2)o1 [5-Methyl-furan-2-carboxylic acid (5-benzyl-thiazol-2-yl)-amide]
EC50: 168 nM

SMILES: Cc1ccc(C(=O)Nc2ncc(Cc3ccc(F)cc3)s2)o1 [5-Methyl-furan-2-carboxylic acid [5-(4-fluoro-benzyl)-thiazol-2-yl]-amide]
EC50: 414 nM

SMILES: O=C(Nc1nccs1)c1ccc(COc2ccc(F)cc2)o1 [5-[(4-fluoranylphenoxy)methyl]-N-(1,3-thiazol-2-yl)furan-2-carboxamide]
EC50 [1]: 11400 nM

SMILES: Nc1c(C(=O)NCc2ccco2)nnn1-c1ccccc1 [5-amino-N-(2-furanylmethyl)-1-phenyl-4-triazolecarboxamide]
EC50: 2670 nM

SMILES: CC1(C)Cc2c(sc(NC(=O)c3ccc(Br)o3)c2C#N)CO1 [5-bromanyl-N-(3-cyano-5,5-dimethyl-4,7-dihydrothieno[2,3-c]pyran-2-yl)furan-2-carboxamide]
EC50: > 407 nM

SMILES: COc1ccc(OC)c2sc(NC(=O)c3ccc(Br)s3)nc12 [5-bromanyl-N-(4,7-dimethoxy-1,3-benzothiazol-2-yl)thiophene-2-carboxamide]
EC50: > 99000 nM

SMILES: O=C(Nc1cccc(-c2nnc(-c3ccccc3)o2)c1)c1ccc(Br)o1 [5-bromanyl-N-[3-(5-phenyl-1,3,4-oxadiazol-2-yl)phenyl]furan-2-carboxamide]
EC50: 4100 nM

SMILES: CCc1ccc(C(=O)NCc2cccs2)s1 [5-ethyl-N-(2-thenyl)thiophene-2-carboxamide]
EC50: 3230 nM

SMILES: c1ccc(-c2cnc(CSc3nnc4ccccn34)o2)cc1 [5-phenyl-2-([1,2,4]triazolo[4,3-a]pyridin-3-ylsulfanylmethyl)-1,3-oxazole]
EC50: 957 nM

SMILES: CCN(CC)c1ccc(-n2cc3c(=O)n(C)c(=O)n(C)c3c2)cc1 [6-(4-Diethylamino-phenyl)-1,3-dimethyl-1,6-dihydro-pyrrolo[3,4-d]pyrimidine-2,4-dione]
EC50 [1]: 12400 nM

SMILES: COc1ccc(-c2cn3ccsc3n2)cc1 [6-(4-methoxyphenyl)imidazo[2,1-b][1,3]thiazole]
EC50: 380 nM

SMILES: CCOC(=O)c1cnc2c(-c3ccccc3)cnn2c1N [7-amino-3-phenyl-6-pyrazolo[1,5-a]pyrimidinecarboxylic acid ethyl ester]
EC50: 183 nM

SMILES: COCC(C)NC(=O)c1noc2c1CCc1cc(OC)ccc1-2 (stereo not given) [7-methoxy-N-(1-methoxypropan-2-yl)-4,5-dihydrobenzo[g][1,2]benzoxazole-3-carboxamide]
EC50: > 1220 nM

SMILES: CCc1nc(Nc2ccc3nccnc3c2)c2oc3ccccc3c2n1 [(2-ethylbenzofuro[3,2-d]pyrimidin-4-yl)-quinoxalin-6-yl-amine;hydrochloride]
EC50: > 99000 nM

SMILES: CC(=Nc1cccc(O)c1)c1sc2ccccc2c1O [(2Z)-2-[1-(3-hydroxyanilino)ethylidene]-1-benzothiophen-3-one]
EC50: 4470 nM

SMILES: COC(=O)CSc1nc2cc(C)ccc2cc1C#N [(3-Cyano-7-methyl-quinolin-2-ylsulfanyl)-acetic acid methyl ester]
EC50: 746 nM

SMILES: Cc1ccc(C2C(C(=O)c3cnn(-c4ccccc4)c3C)C(=O)C(=O)N2CCN(C)C)o1 (stereo not given) [(4E)-1-[2-(dimethylamino)ethyl]-4-[hydroxy-(5-methyl-1-phenyl-4-pyrazolyl)methylidene]-5-(5-methyl-2-furanyl)pyrrolidine-2,3-dione]
EC50: 3590 nM

SMILES: CC(=NC1CCCC1)c1c(C)[nH]n(-c2nc3ccccc3s2)c1=O [(4Z)-2-(1,3-benzothiazol-2-yl)-4-[1-(cyclopentylamino)ethylidene]-5-methylpyrazol-3-one]
EC50: 741 nM

SMILES: Cn1c(-c2ccc3c(c2)OCO3)cnc1NCc1ccccc1 [(5-Benzo[1,3]dioxol-5-yl-1-methyl-1H-imidazol-2-yl)-benzyl-amine]
EC50: > 11000 nM

SMILES: Fc1ccc2nc(Nc3nc4c(s3)CCCC4)sc2c1 [(6-fluoro-1,3-benzothiazol-2-yl)-(4,5,6,7-tetrahydro-1,3-benzothiazol-2-yl)amine]
EC50: 1010 nM

SMILES: CC(=N)C(C#N)C(=O)CSc1ccc2c(c1)OCCO2 (stereo not given) [(E)-3-amino-2-[2-(2,3-dihydro-1,4-benzodioxin-6-ylsulfanyl)acetyl]but-2-enenitrile]
EC50: 2890 nM

SMILES: O=C(Nc1ccc(NC(=O)c2cccs2)cn1)c1ccco1 [Furan-2-carboxylic acid {5-[(thiophene-2-carbonyl)-amino]-pyridin-2-yl}-amide]
EC50: 5540 nM

SMILES: COc1ccccc1Nc1nc2ccccc2[nH]1 [N-(2-methoxyphenyl)-1H-benzimidazol-2-amine]
EC50: 6470 nM

SMILES: COCCn1c(C)cc(C(=O)COC(=O)C23CC4CC(CC(O)(C4)C2)C3)c1C [[2-[1-(2-methoxyethyl)-2,5-dimethylpyrrol-3-yl]-2-oxoethyl] 3-hydroxyadamantane-1-carboxylate]
EC50: 813 nM

More lines, now with the values ahead:

EC50: 444 nM
SMILES: CC(=O)Nc1ccc(-c2cc3ccccc3o2)cc1 [MLS000036584]

EC50: > 1220 nM
SMILES: O=C(Nc1nnc(C2CCCCC2)s1)c1ccco1 [MLS000039439]

EC50: > 3670 nM
SMILES: CC(=O)c1c(C)[nH]c(C(=O)NCCc2cccc(C)c2)c1C [MLS000045238]

EC50: > 99000 nM
SMILES: O=C(NCC1CCCO1)c1coc2nc3ccccc3nc12 (stereo not given) [MLS000046703]

EC50: > 407 nM
SMILES: O=C(Nc1ccc2c(c1)OCO2)c1ccc(COc2ccc3c(c2)CCC3)o1 [MLS000048173]

EC50: 1180 nM
SMILES: COc1ccc(CCC(=O)Nc2ccc(-c3noc(-c4ccc(OC)c(OC)c4)n3)cc2)cc1 [MLS000049572]

EC50: 1190 nM
SMILES: O=C(Nc1ccc(-c2cn3ccsc3n2)cc1)C1CC1 [MLS000053249]

EC50: 589 nM
SMILES: COc1ccc(NC(=O)c2ccc3c(c2)OCO3)cc1Cl [MLS000053302]

EC50: 7740 nM
SMILES: CS(=O)(=O)c1ccc2nc(NC(=O)C3COc4ccccc4O3)sc2c1 (stereo not given) [MLS000056123]

EC50: 720 nM
SMILES: O=C(Nc1ccc(CN2CCOCC2)cc1)c1cc2ccccc2o1 [MLS000062478]

EC50: 2820 nM
SMILES: CC(C)(C)c1cc(NC(=O)C2CCCO2)no1 (stereo not given) [MLS000065845]

EC50: 3100 nM
SMILES: O=C(NCc1ccco1)c1cc2c(s1)CCCCC2 [MLS000065859]

EC50: 1380 nM
SMILES: CCOC(=O)c1cc2cc(OC)ccc2[nH]1 [MLS000071430]

EC50: 1220 nM
SMILES: C=CCn1c(-c2ccccc2)c[nH]c1=S [MLS000071728]

EC50: > 11000 nM
SMILES: CCOc1ccc(OCC)c(NC(=O)CSc2nc3c(c(=O)n(C)c(=O)n3C)n2C(C)C)c1 [MLS000072726]

EC50: 1920 nM
SMILES: Cc1cnc(NC(=O)CSc2nnc(-c3ccccc3)o2)s1 [MLS000077990]

EC50: 544 nM
SMILES: CCOC(=O)c1[nH]c2ccc(C)cc2c1N [MLS000079379]

EC50: 760 nM
SMILES: Nc1nc2c(s1)CCc1c-2cnn1-c1ccccc1 [MLS000085948]

EC50 [1]: 10100 nM
SMILES: Cc1cc(C(=O)Nc2sc3c(c2C#N)CCC(C(C)(C)C)C3)no1 (stereo not given) [MLS000087312]

EC50: > 99000 nM
SMILES: CN(C)C=Nc1ncnc2c1cnn2-c1ccc(C(F)(F)F)cn1 [MLS000087855]

EC50: 4430 nM
SMILES: CCCc1cc(C(=O)Nc2ccccc2SC)no1 [MLS000116378]

EC50: 2200 nM
SMILES: CC(=O)c1cccc(NC(=O)c2cnn3ccccc23)c1 [MLS000118777]

EC50 [1]: 12200 nM
SMILES: CCOc1ccc(OCC)c(NC(=O)C2CCCN2S(=O)(=O)c2cccc3cccnc23)c1 (stereo not given) [MLS000119093]

EC50: 1460 nM
SMILES: CC(=O)Nc1ccc(-c2nc3c(C)cccc3[nH]2)cc1 [SMR000001134]

EC50: > 11000 nM
SMILES: Cc1cc2n(n1)C(c1ccc(N(C)C)cc1)Nc1ccccc1-2 (stereo not given) [SMR000015202]

EC50: 6830 nM
SMILES: CC1(C)CC(=O)C(=CNc2ccccc2)C(=O)C1 [SMR000054233]

EC50: 7840 nM
SMILES: O=c1[nH]c2ccccc2nc1-c1cccs1 [SMR000068248]

EC50: 6660 nM
SMILES: CN(C)C(=O)CSc1nnc(C23CC4CC(CC(C4)C2)C3)o1 [SMR000077996]

EC50: 543 nM
SMILES: CCCCC1CCC(c2nc(-c3ccccn3)no2)CC1 (stereo not given) [SMR000105468]

EC50: > 11000 nM
SMILES: CC1(C)CC(=O)C(=CNc2ccc3[nH]ncc3c2)C(=O)C1 [SMR000111453]
